Reference: US10946036B2, “Use of myostatin inhibitors and combination therapies” (Scholar Rock, Inc., priority 2016, dated 2021)
Entries after “also recorded” stand apart in the source; their conditions may differ. Like-named read-outs stand apart in the source and are kept apart here.

What was measured:
[1] = in vivo; cited from earlier work
[2] = system: preclinical models of SMA (mice); conditions: cited from earlier work; for blood brain barrier (BBB) crossing: mouse, in vivo; for SMN protein levels compared to vehicle: oral dosing, brain and muscle
Δ7 mice = conditions: 0.1 mg/kg/day from birth; cited from earlier work
[3] = system: dexamethasone treated mice; assay: Dexamethasone-induced muscle atrophy in mice; assay type: in vivo, mouse
Description: (§1) FIG. 2A and FIG. 2B provide a summary of dexamethasone-induced atrophy in mice: FIG. 2A illustrates the experimental model of single-dose SRK-015 treatment in healthy and atrophy-induced mice; FIG. 2B provides changes in gastrocnemius muscle weights measured at the indicated time points.
(§2) SRK-015 increased muscle mass in healthy animals and reduced muscle loss in a dexamethasone-induced model of atrophy. […] SRK-015 was also effective in preventing muscle loss upon dexamethasone treatment.

GDF11 = assay: Binding specificity: GDF11; conditions: any form of GDF11
healthy male mice = assay: Muscle mass in healthy mice after single dose; assay type: in vivo, mouse; conditions: single 20 mg/kg dose, after 15 days
Description: as §1, §2

mature GDF-8 = mature GDF-8 (Homo sapiens, UniProt O14793); assay: Binding specificity: mature GDF-8
Experimental: In some embodiments, suitable dosage of SRK-015 for administration in human patients for the treatment of SMA ranges between 1 and 30 mg/kg, e.g., 1-5 mg/kg, 3-5 mg/kg, 3-10 mg/kg, 5-10 mg/kg, 5-15 mg/kg, 5-20 mg/kg, 10-20 mg/kg, etc. In some embodiments, the patient is administered SRK-015 once a week, once every two weeks, once every three weeks, once a month, once every six weeks, etc.

latent myostatin [4] = target: T1, latent myostatin (Macaca fascicularis, UniProt Q95J86); assay: Target engagement in cynomolgus serum, semi-quantitative western blot; assay type: in vivo, cynomolgus monkeys; conditions: 3 mg/kg or 30 mg/kg weekly
T1 construct: from tissue; host or cells: cynomolgus monkey serum
Experimental: (§3) At study termination animals were sacrificed five weeks after the last dose as described in above and muscle weights were determined. Gastrocnemius and Biceps brachii muscles (FIG. 10A and FIG. 10B, respectively) show increased mass following SRK-015 treatment. Gastrocnemius weights increased 21% in the 3 mg/kg groups, and 23% in the 30 mg/kg groups relative to vehicle control. * indicates statistically significant difference from vehicle by one-way ANOVA; P<0.007. Biceps brachii weights increased 18% in the 3 mg/kg groups, and 25% in the 30 mg/kg group relative to vehicle control. * indicates statistically significant difference from vehicle by one-way ANOVA; P<0.02. […] Serum samples were collected at the indicated study day and analyzed by semi-quantitative western blot analysis. Accumulation of latent myostatin, indicative of SRK-015 binding, is evident by day 8. Target continues to accumulate as additional doses are administered. Latent myostatin levels were quantified as described in Example 7 above. The effects of SRK-015 on muscle weight indicate that even at lower end of dosage (e.g., 3 mg/kg/week) SRK-015 is at or near the level of target engagement necessary for maximal efficacy.

[5] = Pharmacokinetics in scid mice, anti-human IgG ELISA; assay type: in vivo, mouse; conditions: single 5 mg/kg IV dose, serum
Experimental: (§4) Male scid mice were administered a single 5 mg/kg IV dose of SRK-015. Separate cohorts of mice were sacrificed 4 hours, 2, 8, 15, 22, 29, and 56 days post dose, and serum and TA muscles collected for PK and target engagement assays. N=4 or 8 per group. SRK-015 levels were determined from serum samples taken at the indicated times after dosing. Analysis was performed using an anti-human IgG ELISA. The half-life of SRK-015 in scid mice at 5 mg/kg was ˜20.3 days.

scid mice = assay: Lean mass by qNMR in scid mice; assay type: in vivo, mouse; conditions: single 5 mg/kg dose
Experimental: as §4
(§5) Lean mass was measured with qNMR at the indicated timepoints after dosing. […] Target engagement was assessed by analyzing levels of latent myostatin in serum and muscle using western blot. Binding to SRK-015 results in accumulation of latent myostatin as the bound target assumes the half-life of the antibody and accumulates in circulation and in the target tissues. […] Samples from three mice from each cohort were analyzed.

murine proMyostatin = assay: Binding to murine proMyostatin; parameters: species or system mouse
Activin A = assay: Binding specificity: Activin A; conditions: any form
mouse proMyostatin = target: T2, mouse proMyostatin (Mus musculus, UniProt O08689); assay: proMyostatin activation reporter assay, mouse proMyostatin; assay type: cell-based
T2 construct: made in house; host or cells: mammalian expression system
Description: (§6) Antibody SRK-015P (“P” for parental) was optimized to generate SRK-015, a fully human monoclonal antibody. SRK-015 differs from its parental clone by five residues in the variable domain outside the complementarity determining region. […] Both SRK-015 and SRK-015P had similar functional activity towards human and mouse proMyostatin in the reporter assay such that EC50 values for the two antibodies in proMyostatin activation assay using human and mouse proMyostatin, are similar. […] The ability of SRK-015 to bind the myostatin prodomain and to inhibit tolloid cleavage has been shown. Purified recombinant latent myostatin was incubated with TLL-2 tolloid protease in the presence of increasing concentrations of SRK-015. Samples were separated by reducing SDS-PAGE and probed by Western blot with an antibody that recognizes the myostatin prodomain.

proGDF11 = proGDF11 (Homo sapiens, UniProt O95390); assay: Protease activity reporter assay using proGDF11 as substrate; assay type: cell-based
mature myostatin = mature myostatin (Homo sapiens, UniProt O14793); assay: Mature myostatin signaling in Smad2/3 reporter assay; assay type: cell-based
[6] = Pharmacokinetics in cynomolgus monkeys, ELISA; assay type: in vivo; conditions: for T1/2: post-dosing period
Experimental: (§7) SRK-015 PK properties were also determined in cynomolgus monkeys. Two- to three-year old male animals (average age 34 months) were administered weekly doses of 3 mg/kg or 30 mg/kg SRK-015 for 8 weeks. Following the last dose, animals were followed for an additional five weeks in the absence of drug administration. Samples from this post-dosing period were used to calculate PK parameters. […] Antibody levels were assessed by ELISA.

latent myostatin [7] = target: T3, latent myostatin (Homo sapiens, UniProt O14793); assay: TLL-2 tolloid cleavage of latent myostatin, Western blot; assay type: biochemical; conditions: increasing antibody concentrations
T3 construct: Following cleavage, the growth factor and prodomain remain associated, forming a latent complex (latent myostatin)
Description: as §6

cynomolgus monkeys = assay: Muscle weights in cynomolgus monkeys; assay type: in vivo
Experimental: as §7, §3

latent myostatin [8] = target: T4, latent myostatin (Mus musculus, UniProt O08689); assay: Target engagement in serum and muscle of scid mice, western blot; assay type: in vivo; conditions: single 5 mg/kg dose
T4 construct: from tissue; host or cells: mouse serum and tibialis anterior muscle
Experimental: as §4, §5

proMyostatin [9] = target: T5, proMyostatin (Homo sapiens, UniProt O14793); assay: proMyostatin activation assay, Smad2/3 luciferase reporter cell line; assay type: cell-based; conditions: proMyostatin incubated with furin and mTTL-2 proteases
T5 construct: made in house; host or cells: mammalian expression system
Description: as §6

mature BMP10 = target: T6, mature BMP10 (Homo sapiens, UniProt O95393); assay: Binding specificity: mature BMP10
T6 sequence (O95393 317-424): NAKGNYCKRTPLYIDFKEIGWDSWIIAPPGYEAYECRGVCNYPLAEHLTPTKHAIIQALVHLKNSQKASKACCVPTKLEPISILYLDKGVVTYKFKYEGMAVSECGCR

proMyostatin [10] = target: T5, proMyostatin; assay: proMyostatin activation reporter assay, human proMyostatin; assay type: cell-based
Description: as §6

mature BMP9 = target: T7, mature BMP9 (Homo sapiens, UniProt Q9UK05); assay: Binding specificity: mature BMP9
T7 sequence (Q9UK05 320-429): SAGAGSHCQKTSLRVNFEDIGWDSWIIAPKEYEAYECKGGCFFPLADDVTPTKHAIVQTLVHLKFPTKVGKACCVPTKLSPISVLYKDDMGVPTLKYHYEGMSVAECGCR

mature TGFβ1 = mature TGFβ1 (Homo sapiens, UniProt P01137); assay: Binding specificity: mature TGFβ1
Type II SMA patients = conditions: cited from earlier work; for HFMSE score increase relative to placebo group: mean
[11] = system: infantile-onset SMA (type I) patients; conditions: cited from earlier work
SMA patients = conditions: human, in vivo; cited from earlier work
[12] = 3 mg/kg weekly x8, five weeks after last dose
[13] = 30 mg/kg weekly x8, five weeks after last dose

Chain of mature TGFβ1 (P01137 279-390 limits assumed): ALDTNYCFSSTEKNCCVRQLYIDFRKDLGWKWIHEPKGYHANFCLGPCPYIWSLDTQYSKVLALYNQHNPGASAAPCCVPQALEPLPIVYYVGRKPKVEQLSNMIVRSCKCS
Chain of proGDF11 (O95390 299-407): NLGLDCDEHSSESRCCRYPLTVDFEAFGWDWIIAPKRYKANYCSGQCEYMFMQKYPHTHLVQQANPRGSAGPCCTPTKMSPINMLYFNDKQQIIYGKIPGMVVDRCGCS

Compound: CC1(C)CC(Oc2ccc(-c3ccc(-c4cn[nH]c4)cc3O)nn2)CC(C)(C)N1 [LMI070]
- preclinical toxicity findings [1]: injuries to the peripheral nerves and spinal cord, testes, and blood vessels in the kidney

Compound: CCc1nc(C)cn2nc(-c3cc(=O)n4cc(C5CCN(C)CC5)cc(C)c4n3)cc12 [RG7800]
- blood brain barrier (BBB) crossing [2]: efficiently crossed the blood brain barrier
- SMN protein levels compared to vehicle [2]: increased SMN protein levels in both brain and muscle tissues

Compound: Cc1cn2cc(-c3cc4ccc(N5CCN(C)CC5)cc4c(=O)o3)nc2c(C)n1 [SMN-C1]
- treated mice surviving to post-natal day (PND) 52 (Δ7 mice): 70%

Compound: CCN1CCN(c2ccc3cc(-c4cn5cc(C)nc(C)c5n4)c(=O)oc3c2)C[C@@H]1C [SMN-C2]
- blood brain barrier (BBB) crossing [2]: efficiently crossed the blood brain barrier
- SMN protein levels compared to vehicle [2]: increased SMN protein levels in both brain and muscle tissues

Compound: CCN1CCC(c2cc(C)c3nc(-c4cc5c(C)nc(C)cn5n4)cc(=O)n3c2)CC1 [SMN-C3]
- blood brain barrier (BBB) crossing [2]: efficiently crossed the blood brain barrier
- SMN protein levels compared to vehicle [2]: increased SMN protein levels in both brain and muscle tissues

Compound: C[C@@H]1C[C@H]2[C@@H]3CCC4=CC(=O)C=C[C@]4(C)[C@@]3(F)[C@@H](O)C[C@]2(C)[C@@]1(O)C(=O)CO [dexamethasone, reference compound]
- loss of muscle mass, IgG vehicle versus IgG Dex ([3]; chronic administration, by day 8): 16%

Compound: SRK-015: fully human monoclonal antibody optimized from SRK-015P; binds pro/latent myostatin and inhibits release of mature growth factor
- binding to GDF11 (GDF11): does not bind; also recorded: no detectable binding
- muscle atrophy under dexamethasone ([3]; single 20 mg/kg dose, throughout the study): prevented muscle atrophy
- increase in muscle mass versus IgG control (healthy male mice): 17.5%
- binding to mature GDF-8 (mature GDF-8): does not bind
- target engagement in serum (latent myostatin [4]): engaged latent myostatin at both doses tested
- accumulation of latent myostatin evident by (latent myostatin [4]; serum): ≤ 8 days
- half-life [5]: ~487 h
- lean mass relative to IgG control (scid mice): significant increase in lean mass
- Kd (murine proMyostatin): 8.35 nM
- binding to Activin A (Activin A): no detectable binding
- EC50 in proMyostatin activation assay, the two antibodies compared (mouse proMyostatin): similar
- effect in protease activity assay with proGDF11 (proGDF11): no effect
- inhibition of mature myostatin signaling (mature myostatin): did not inhibit
- AUClast ([6]; 3 mg/kg weekly for 8 weeks): 60799 hr▪ng/ml
- Cmax ([6]; 3 mg/kg weekly for 8 weeks): 243 ng/mL
- Tmax ([6]; 3 mg/kg weekly for 8 weeks): 51 h
- T1/2 ([6]; 3 mg/kg weekly for 8 weeks): 12.4 h
- AUClast ([6]; 30 mg/kg weekly for 8 weeks): 1070638 hr▪ng/ml
- Cmax ([6]; 30 mg/kg weekly for 8 weeks): 2648 ng/mL
- Tmax ([6]; 30 mg/kg weekly for 8 weeks): 15 h
- T1/2 ([6]; 30 mg/kg weekly for 8 weeks): 22.2 h
- tolloid-mediated cleavage of latent myostatin (latent myostatin [7]): inhibited the second (tolloid-mediated) proteolysis step
- Biceps brachii weight increase relative to vehicle control (cynomolgus monkeys; [12]): 18%
- Gastrocnemius weight increase relative to vehicle control (cynomolgus monkeys; [12]): 21%
- Biceps brachii weight increase relative to vehicle control (cynomolgus monkeys; [13]): 25%
- Gastrocnemius weight increase relative to vehicle control (cynomolgus monkeys; [13]): 23%
- onset of significant target engagement in circulation (latent myostatin [8]): within four hours
- onset of significant target engagement in muscle (latent myostatin [8]): within two days
- target engagement at 56 days post-dosing (latent myostatin [8]): no longer observed
- target engagement sustained out to (latent myostatin [8]): 29 days post dose
- release of mature myostatin, measured by luciferase expression (proMyostatin [9]): inhibited release of mature myostatin
- binding to mature BMP10 (mature BMP10): no detectable binding
- EC50 in proMyostatin activation assay, the two antibodies compared (proMyostatin [10]): similar
- binding to mature BMP9 (mature BMP9): no detectable binding
- binding to mature TGFβ1 (mature TGFβ1): no detectable binding

Compound: nusinersen
- patients not attaining at least 3-point HFMSE improvement (Type II SMA patients; in vivo): 43%
- HFMSE score increase relative to placebo group (Type II SMA patients): 5.9 points
- HFMSE score increase relative to placebo group (Type II SMA patients; listed as Nusinersen): less than 6 points
- treated patients able to sit unaided ([11]; Type I patients): five of 81
- patients reported to be non-responders ([11]; infantile-onset SMA (type I)): 60%
- treated patients with improvements in motor milestones (Hammersmith Infant Neurological Examination) ([11]; interim analysis, 0% placebo): 41%
- compound muscle action potential (CMAP) amplitudes (SMA patients): improvements
